Test results: patent publication US10912840B2, “Conjugates for treating diseases caused by PSMA expressing cells” (priority 2012, dated 2021)
Entries after “also recorded” stand apart in the source; their conditions may differ. Like-named read-outs stand apart in the source and are kept apart here.

Key:
LNCaP cells = conditions: human
Experimental: LNCaP cells are seeded in 24-well Corning Cell-BIND plates and allowed to form nearly confluent monolayers overnight in RPMI/HIFCS. Thirty minutes prior to the addition of test compound, such as a compound described herein, spent medium is aspirated from all wells and replaced with fresh RPMI. Following one rinse with 1 mL of fresh RPMI/HIFCS, each well receives 1 mL of media containing increasing concentrations of test compound (four wells per sample). Test compound treated cells are pulsed for 2 h at 37° C., rinsed four times with 0.5 mL of media, and then chased in 1 mL of fresh media up to 70 h. Spent media is aspirated from all wells and replaced with fresh media containing 5 μCi/mL ^3H-thymidine. Following a further 4 h 37° C. incubation, cells are washed three times with 0.5 mL of PBS and then treated with 0.5 mL of ice-cold 5% trichloroacetic acid per well. After 15 min, the trichloroacetic acid is aspirated and the cells are solubilized by the addition of 0.5 mL of 0.25 N sodium hydroxide for 15 min. Four hundred and fifty microliters of each solubilized sample is transferred to scintillation vials containing 3 mL of Ecolume scintillation cocktail and then counted in a liquid scintillation counter. Final tabulated results are expressed as the percentage of ^3H-thymidine incorporation relative to untreated controls.

[1] = Gross toxicity (body weight change) in LNCaP tumor-bearing mice
Experimental: Four to seven week-old male nu/nu mice (Harlan Sprague Dawley. Inc., Indianapolis, Ind.) are maintained on a standard 12 h light-dark cycle and fed ad libitum with rodent diet #2918 (Harlan Teklad, Madison, Wis.) for the duration of the experiment. LNCaP cells are grown in RPMI in 10% HIFCS at 37° C. in a 5% CO2/95% air-humidified atmosphere, harvested and resuspended on ice in matrigel solution (50% RPMI+50% matrigel high concentration. BD#354248) to a final concentration of 1×10^6 cells/50 μL. Cell solution and injection needles (28 gauge) are kept on ice prior to injection and 50 μL of the cell solution injected in the subcutis of the dorsal medial area. Mice are divided into groups of five, seven, or nine, and freshly prepared test compound solutions are injected through the lateral tail vein under sterile conditions in a volume of 200 μL of phosphate-buffered saline (PBS). […] Growth of each s.c. tumor is followed by measuring the tumor three times per week during treatment and twice per week thereafter, until a volume of 1500 mm^3 is reached. Tumors are measured in two perpendicular directions using Vernier calipers, and their volumes are calculated as 0.5×L×W^2, where L=measurement of longest axis in mm and W=measurement of axis perpendicular to L in mm. As a general measure of gross toxicity, changes in body weights are determined on the same schedule as tumor volume measurements. Maximum % weight loss on any given day due to treatment is determined for each mouse. Survival of animals is monitored daily. Animals that are moribund (or unable to reach food or water) are euthanized by CO2 asphyxiation.

PSMA = molecular target: T1, PSMA (Homo sapiens, UniProt Q04609); format: binding
T1 construct: endogenous in cells; host or cells: LNCaP cells
T1 sequence (Q04609 whole entry): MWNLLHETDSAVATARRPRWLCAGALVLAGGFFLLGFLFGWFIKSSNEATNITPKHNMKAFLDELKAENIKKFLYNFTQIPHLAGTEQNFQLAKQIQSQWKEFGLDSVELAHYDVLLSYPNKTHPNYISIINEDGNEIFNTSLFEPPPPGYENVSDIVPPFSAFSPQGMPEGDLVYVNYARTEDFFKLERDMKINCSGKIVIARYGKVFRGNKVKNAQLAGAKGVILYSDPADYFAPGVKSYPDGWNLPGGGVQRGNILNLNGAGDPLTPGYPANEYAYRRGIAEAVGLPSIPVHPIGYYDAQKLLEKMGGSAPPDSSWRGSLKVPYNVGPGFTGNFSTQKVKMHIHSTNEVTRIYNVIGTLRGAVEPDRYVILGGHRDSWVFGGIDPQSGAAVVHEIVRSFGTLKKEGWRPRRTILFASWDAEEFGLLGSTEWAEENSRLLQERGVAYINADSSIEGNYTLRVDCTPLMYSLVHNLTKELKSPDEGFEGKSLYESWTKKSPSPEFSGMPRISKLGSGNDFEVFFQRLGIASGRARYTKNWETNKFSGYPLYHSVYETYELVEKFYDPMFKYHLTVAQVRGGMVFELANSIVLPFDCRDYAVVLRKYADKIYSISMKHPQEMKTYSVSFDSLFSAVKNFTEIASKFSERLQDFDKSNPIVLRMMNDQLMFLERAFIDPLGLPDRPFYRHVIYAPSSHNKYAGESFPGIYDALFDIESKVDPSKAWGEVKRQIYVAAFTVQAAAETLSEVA
Experimental: PSMA relative affinity assay. LNCaP cells are seeded in 12-well Corning Cell-BIND plates and allowed to form adherent monolayers overnight in RPMI/HIFCS. Spent incubation media is replaced with RPMI supplemented with 10% HIFCS and containing a standard PSMA binding ligand, such as 100 nM of 3H-PMPA or a competing compound, such as EC0652, Re-EC652, or ^99mTc-EC0652, in the absence and presence of increasing concentrations of test compound, such as unlabeled PMPA, or a compound described herein, such as EC1169 or EC1568, a negative control intermediate lacking a PSMA binding ligand which is used as a negative control. Cells are incubated for 1 h at 37° C. and then rinsed three times with 0.5 mL of PBS. Five hundred microliters of 1% sodium dodecylsulfate in PBS are added to each well; after 5 min, cell lysates are collected, transferred to individual tubes or to vials containing 5 mL of scintillation cocktail, and then counted for radioactivity. Cells exposed to only the standard PSMA binding ligand, such as 3H-PMPA, or competing compound, such as ^99mTc-EC0652, in FFRPMI (no competitor) are designated as negative controls, whereas cells exposed to the standard PSMA binding ligand, such as 3H-PMPA, plus 1 mM unlabeled PMPA or competing compound, such as ^99mTc-EC0652 plus Re-EC0652, serve as positive controls. Disintegrations per minute (DPMs) measured in the latter samples (representing nonspecific binding of label) are subtracted from the DPM values from all samples. Relative affinities are defined as the inverse molar ratio of compound required to displace 50% of the standard PSMA binding ligand, such as ^3H-PMPA, or the competing compound, such as ^99mTc-EC0652, bound to PSMA on LNCaP cells, and the relative affinity of the standard PSMA binding ligand, such as PMPA, or the competing compound, such as Re-EC0652, for PSMA is set to 1.

[2] = format: in vivo; conditions: rats, i.v., 0.33 and 0.51 μmol/kg, BIW, 2 weeks
[3] = system: PSMA-positive LNCaP human xenografts; test: Activity in vivo against PSMA+ tumor implanted in mice; conditions: for tumor growth in vivo compared to untreated animals / cures (cured/tested animals; no tumor growth during entire observation period): 2 μmol/kg, LNCaP xenografts; for tumor growth in vivo compared to untreated animals: TIW for 2 weeks, beginning on day 21 post tumor implant; for cures (cured/tested animals; no tumor growth during entire observation period): TIW
Excerpt: Survival of animals is monitored daily.

[4] = PMPA = 1.0 (normalized), in 10% serum/FDRPMI
[5] = 10 mg/kg, BIW, 2 weeks, MTD, LNCaP-tumor bearing mice

Structure (SMILES): CCCCCCCOCN(C(=O)[C@@H](NC(=O)[C@H]1CCCCN1C)C(C)CC)[C@H](C[C@@H](OC(C)=O)c1nc(C(=O)N[C@@H](Cc2ccc(O)cc2)C[C@H](C)C(=O)NNC(=O)OCCSSC[C@H](NC(=O)[C@H](CC(=O)O)NC(=O)[C@H](CC(=O)O)NC(=O)Cc2ccc(CNC(=O)NCCCC[C@H](NC(=O)N[C@@H](CCC(=O)O)C(=O)O)C(=O)O)cc2)C(=O)O)cs1)C(C)C (stereo partly shown) [EC1721]
- IC50 (LNCaP cells): 0.0656 µM
- gross animal toxicity (weight loss, major organ tissue degeneration) ([1]; 2 μmol/kg, TIW, 2 weeks): do not exhibit gross animal toxicity

Structure (SMILES): O=C(O)CC[C@H](NC(=O)N[C@@H](CCCCNC(=O)Nc1ccc(CC(=O)N[C@@H](CC(=O)O)C(=O)N[C@@H](CC(=O)O)C(=O)N[C@@H](CS)C(=O)O)cc1)C(=O)O)C(=O)O [EC1067]
- Relative PSMA Binding Affinity (fold over PMPA = 1.0) (PSMA): 30 fold
- relative affinity for PSMA (PSMA; [4]): 30 ×

Structure (SMILES): CCCC(=O)OCN(C(=O)[C@@H](NC(=O)[C@H]1CCCCN1C)C(C)CC)[C@H](C[C@@H](OC(C)=O)c1nc(C(=O)N[C@@H](Cc2ccc(O)cc2)C[C@H](C)C(=O)NNC(=O)OCCSSC[C@H](NC(=O)[C@H](CC(=O)O)NC(=O)[C@H](CCCNC(=N)N)NC(=O)Cc2ccc(CNC(=O)NCCCC[C@H](NC(=O)N[C@@H](CCC(=O)O)C(=O)O)C(=O)O)cc2)C(=O)O)cs1)C(C)C (stereo partly shown) [EC1310]
- Relative PSMA Binding Affinity (fold over PMPA = 1.0) (PSMA): 10 fold

Structure (SMILES): CCCC(=O)OCN(C(=O)[C@@H](NC(=O)[C@H]1CCCCN1C)C(C)CC)[C@H](C[C@@H](OC(C)=O)c1nc(C(=O)N[C@@H](Cc2ccc(O)cc2)C[C@H](C)C(=O)NNC(=O)OCCSSC[C@H](NC(=O)[C@H](CC(=O)O)NC(=O)[C@H](CC(=O)O)NC(=O)Cc2ccc(CNC(=O)NCCCC[C@H](NC(=O)N[C@@H](CCC(=O)O)C(=O)O)C(=O)O)cc2)C(=O)O)cs1)C(C)C (stereo partly shown) [EC1169]
- hematological toxicity in red blood cells and white blood cells [2]: significantly lower than untreated controls
- IC50 (LNCaP cells): 0.013 µM
- gross animal toxicity (weight loss, major organ tissue degeneration) ([1]; 2 μmol/kg, TIW, 2 weeks): absence of weight loss or major organ tissue degeneration
- gross toxicity compared to docetaxel ([1]; 2 μmol/kg, TIW, 2 weeks vs docetaxel 10 mg/kg, BIW, MTD): substantially less gross animal toxicity compared to docetaxel; also recorded: less toxic than docetaxel
- gross animal toxicity (weight loss, major organ tissue degeneration) ([1]; 2 μmol/kg, TIW, 2 weeks, listed as EC169): do not exhibit gross animal toxicity

Structure (SMILES): CCCOCN(C(=O)[C@@H](NC(=O)[C@H]1CCCCN1C)[C@@H](C)CC)[C@H](C[C@@H](OC(C)=O)c1nc(C(=O)N[C@@H](Cc2ccc(O)cc2)C[C@H](C)C(=O)NNC(=O)OCCSSC[C@H](NC(=O)[C@H](CC(=O)O)NC(=O)[C@H](CC(=O)O)NC(=O)Cc2ccc(CNC(=O)NCCCC[C@H](NC(=O)N[C@@H](CCC(=O)O)C(=O)O)C(=O)O)cc2)C(=O)O)cs1)C(C)C [EC1718]
- tumor growth in vivo compared to untreated animals [3]: efficacious in decreasing tumor growth
- cures (cured/tested animals; no tumor growth during entire observation period) ([3]; 2 weeks): 1/7
- IC50: 0.0179 µM
- gross animal toxicity (weight loss, major organ tissue degeneration) ([1]; 2 μmol/kg, TIW, 2 weeks): do not exhibit gross animal toxicity

Structure (SMILES): CCCCOCN(C(=O)[C@@H](NC(=O)[C@H]1CCCCN1C)[C@@H](C)CC)[C@H](C[C@@H](OC(C)=O)c1nc(C(=O)N[C@@H](Cc2ccc(O)cc2)C[C@H](C)C(=O)NNC(=O)OCCSSC[C@H](NC(=O)[C@H](CC(=O)O)NC(=O)[C@H](CC(=O)O)NC(=O)Cc2ccc(CNC(=O)NCCCC[C@H](NC(=O)N[C@@H](CCC(=O)O)C(=O)O)C(=O)O)cc2)C(=O)O)cs1)C(C)C [EC1677]
- tumor growth in vivo compared to untreated animals [3]: efficacious in decreasing tumor growth
- cures (cured/tested animals; no tumor growth during entire observation period) ([3]; 2 weeks): 4/7
- IC50: 0.0209 µM
- gross animal toxicity (weight loss, major organ tissue degeneration) ([1]; 2 μmol/kg, TIW, 2 weeks): do not exhibit gross animal toxicity

Structure (SMILES): O=C(O)CC[C@H](NC(=O)N[C@@H](CCCCNC(=O)Nc1ccc(CC(=O)O)cc1)C(=O)O)C(=O)O [EC1080]
- Relative PSMA Binding Affinity (fold over PMPA = 1.0) (PSMA): 6 fold
- relative affinity for PSMA (PSMA; [4]): 6 ×

Structure (SMILES): CC(=O)O[C@@]12CO[C@@H]1C[C@H](O)[C@@]1(C)C(=O)[C@H](O)C3=C(C)[C@@H](OC(=O)[C@H](O)[C@@H](NC(=O)OC(C)(C)C)c4ccccc4)C[C@@](O)([C@@H](OC(=O)c4ccccc4)[C@H]21)C3(C)C [docetaxel, reference compound]
- anti-tumor activity [3, 5]: only modest anti-tumor activity
- cures (cured/tested animals) [3, 5]: 1/4
- gross toxicity ([1]; 10 mg/kg, BIW, 2 weeks, MTD): high gross toxicity
- weight loss ([1]; 10 mg/kg, BIW, 2 weeks, MTD): 18%

Structure (SMILES): O=C(O)CC[C@H](CP(=O)(O)O)C(=O)O [PMPA, reference compound]
- relative affinity for PSMA (PSMA): 1.0 ×

Structure (SMILES): O=C(O)CC[C@H](NC(=O)N[C@@H](CCCCNC(=O)NCc1ccc(CC(=O)N[C@@H](CC(=O)O)C(=O)N[C@@H](CC(=O)O)C(=O)N[C@@H](CS)C(=O)O)cc1)C(=O)O)C(=O)O [EC1167]
- Relative PSMA Binding Affinity (fold over PMPA = 1.0) (PSMA): 11 fold

Structure (SMILES): CCCCCCOCN(C(=O)[C@@H](NC(=O)[C@H]1CCCCN1C)C(C)CC)[C@H](C[C@@H](OC(C)=O)c1nc(C(=O)N[C@@H](Cc2ccc(O)cc2)C[C@H](C)C(=O)NNC(=O)OCCSSC[C@H](NC(=O)[C@H](CC(=O)O)NC(=O)[C@H](CC(=O)O)NC(=O)Cc2ccc(CNC(=O)NCCCC[C@H](NC(=O)N[C@@H](CCC(=O)O)C(=O)O)C(=O)O)cc2)C(=O)O)cs1)C(C)C (stereo partly shown) [EC1720]
- IC50 (LNCaP cells): 0.0542 µM
- gross animal toxicity (weight loss, major organ tissue degeneration) ([1]; 2 μmol/kg, TIW, 2 weeks): do not exhibit gross animal toxicity

Structure (SMILES): CCCCCOCN(C(=O)[C@@H](NC(=O)[C@H]1CCCCN1C)[C@@H](C)CC)[C@H](C[C@@H](OC(C)=O)c1nc(C(=O)N[C@@H](Cc2ccc(O)cc2)C[C@H](C)C(=O)NNC(=O)OCCSSC[C@H](NC(=O)[C@H](CC(=O)O)NC(=O)[C@H](CC(=O)O)NC(=O)Cc2ccc(CNC(=O)NCCCC[C@H](NC(=O)N[C@@H](CCC(=O)O)C(=O)O)C(=O)O)cc2)C(=O)O)cs1)C(C)C [EC1719]
- tumor growth in vivo compared to untreated animals [3]: efficacious in decreasing tumor growth
- cures (cured/tested animals; no tumor growth during entire observation period) ([3]; 2 weeks): 2/7
- IC50: 0.0375 µM
- gross animal toxicity (weight loss, major organ tissue degeneration) ([1]; 2 μmol/kg, TIW, 2 weeks): do not exhibit gross animal toxicity

Structure (SMILES): CCCC(=O)OCN(C(=O)[C@@H](NC(=O)[C@H]1CCCCN1C)C(C)CC)[C@H](C[C@@H](OC(C)=O)c1nc(C(=O)N[C@@H](Cc2ccc(O)cc2)C[C@H](C)C(=O)NNC(=O)OCCSSC[C@H](NC(=O)[C@@H](CC(=O)O)NC(=O)[C@@H](CC(=O)O)NC(=O)Cc2ccc(CNC(=O)NCCCC[C@H](NC(=O)N[C@@H](CCC(=O)O)C(=O)O)C(=O)O)cc2)C(=O)O)cs1)C(C)C (stereo partly shown) [EC1308]
- Relative PSMA Binding Affinity (fold over PMPA = 1.0) (PSMA): 20 fold

Structure (SMILES): O=C(O)CC[C@H](NC(=O)N[C@@H](CCCCNC(=O)NCc1ccc(CC(=O)N[C@@H](CC(=O)O)C(=O)N[C@@H](CC(=O)O)C(=O)NCC(=O)O)cc1)C(=O)O)C(=O)O [EC1168]
- Relative PSMA Binding Affinity (fold over PMPA = 1.0) (PSMA): 17 fold
- relative affinity for PSMA (PSMA; [4]): 17 ×

Structure (SMILES): CCCC(=O)OCN(C(=O)[C@@H](NC(=O)[C@H]1CCCCN1C)C(C)CC)[C@H](C[C@@H](OC(C)=O)c1nc(C(=O)N[C@@H](Cc2ccc(O)cc2)C[C@H](C)C(=O)NNC(=O)OCCSSC[C@H](NC(=O)[C@H](Cc2ccccc2)NC(=O)[C@H](CC(=O)O)NC(=O)NCCCC[C@H](NC(C)=O)C(=O)O)C(=O)O)cs1)C(C)C (stereo partly shown) [EC1568, reference compound]
- Relative PSMA Binding Affinity (fold over PMPA = 1.0) (PSMA): 0 fold

Structure (SMILES): O=C(O)CC[C@H](NC(=O)N[C@@H](CCC(=O)O)C(=O)O)C(=O)O [DUPA, reference compound]
- relative affinity for PSMA (PSMA): 0.05 ×
